Reference: patent publication US8853175B2, “Phenethylsulfone isoindoline derivatives and their use” (Celgene Corporation, priority 2010, dated 2014)

How the values were obtained:
[1] = test system: TNFα; test: TNFα inhibition assay in PBMC (LPS-stimulated); type: cell-based; conditions: Homo sapiens; PBMC stimulated with LPS 1 ng/ml; TNFα by ELISA; read-out: IC50 for inhibiting TNFα
Procedure: Peripheral blood mononuclear cells (PBMC) from normal donors are obtained by Ficoll Hypaque (Pharmacia, Piscataway, N.J., USA) density centrifugation. Cells are cultured in RPMI 1640 (Life Technologies, Grand Island, N.Y., USA) supplemented with 10% AB+human serum (Gemini Bio-products, Woodland, Calif., USA), 2 mM L-glutamine, 100 U/ml penicillin, and 100 μg/ml streptomycin (Life Technologies).
PBMC (2×10^5 cells) are plated in 96-well flat-bottom Costar tissue culture plates (Corning, N.Y., USA) in triplicate. Cells are stimulated with LPS (from Salmonella abortus equi, Sigma cat. no. L-1887, St. Louis, Mo. USA) at 1 ng/ml final in the absence or presence of compounds. Compounds provided herein are dissolved in DMSO (Sigma) and further dilutions are done in culture medium immediately before use. The final DMSO concentration in all assays can be about 0.25%. Compounds are added to cells 1 hour before LTS stimulation. Cells are then incubated for 18-20 hours at 37° C. in 5% CO2, and supernatants are then collected, diluted with culture medium and assayed for TNFα levels by ELISA (Endogen, Boston, Mass. USA). IC50s are calculated using non-linear regression, sigmoidal dose-response, constraining the top to 100% and bottom to 0%, allowing variable slope (GraphPad Prism v3.02).

[2] = test system: PDE 4; test: PDE 4 inhibition assay; type: biochemical, human; conditions: crude PDE 4 enzyme from U937 cells; 1 μM cAMP; read-out: IC50 for inhibiting PDE 4
Procedure: PDE 4 inhibition may be assays using any methods conventionally known in the art. For example, using a modification of the method of Hill and Mitchell [Hill and Mitchell, Faseb J., 8, A217 (1994)], U937 cells (a human promonocytic cell line) are grown to 1×10^6 cells/mL and collected by centrifugation. A cell pellet of 1×10^9 cells is washed in phosphate buffered saline and then frozen at −70° C. for later purification or immediately lysed in cold homogenization buffer (20 mM Tris-HCl, pH 7.1, 3 mM 2-mercaptoethanol, 1 mM magnesium chloride, 0.1 mM ethylene glycol-bis-(β-aminoethyl ether)-N,N,N^1,N^1-tetraacetic acid (EGTA), 1 μM phenylmethylsulfonyl fluoride (PMSF), and 1 μg/mL leupeptin). Cells are homogenized with 20 strokes in a Dounce homogenizer and the supernatant containing the cytosolic fraction are obtained by centrifugation. The supernatant is then loaded onto a Sephacryl S-200 column equilibrated in homogenization buffer. […]
The phosphodiesterase assay is carried out based on the procedure described by Hill and Mitchell. […] Each data point is carried out in duplicate and activity is expressed as percentage of control. The IC50s of the compounds are then determined from dose response curves of a minimum of three independent experiments.

For `CCOc1cc([C@@H](CS(C)(=O)=O)N2C(=O)c3cccc(NC(=O)CO)c3C2=O)ccc1OC` [(1S)—N-{2-[1-(3-Ethoxy-4-Methoxy-Phenyl)-2-Methanesulfonyl-Ethyl]-1,3-Dioxo-2,3-Dihydro-1H-Isoindol-4-yl}-2-Hydroxy-Acetamide], the IC50 [1] was ~200 nM and the IC50 [2] was ~10 nM.
